Several values for one entry are separate records, joined by “and”; a condition that tells them apart may be missing. Equal values may be shown once.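 These data come from cells grown in 96-well plates and exposed to compound for 48 hours at five concentrations. Here, GI50 denotes the concentration required for 50% inhibition of growth. TGI: concentration producing complete growth inhibition.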
Assays:
Experiment in all cases: NCI tumour cell line growth inhibition, 48 h
BT-549 breast = system: BT-549 breast
HOP-62 NSCLC = system: HOP-62 NSCLC
KM12 colon = system: KM12 colon
M14 melanoma = system: M14 melanoma
MALME-3M melanoma = system: MALME-3M melanoma
MDA-MB-231 breast = system: MDA-MB-231 breast
MOLT-4 leukemia = system: MOLT-4 leukemia
SK-MEL-28 melanoma = system: SK-MEL-28 melanoma
UACC-62 melanoma = system: UACC-62 melanoma
UO-31 renal = system: UO-31 renal

Oc1ccc2ccccc2c1N=Nc1ccccn1
GI50 (BT-549 breast): 3440 nM
TGI (BT-549 breast): > 100000 nM
GI50 (HOP-62 NSCLC): 1410 nM
TGI (HOP-62 NSCLC): > 100000 nM
GI50 (KM12 colon): 919 nM
TGI (KM12 colon): > 100000 nM
GI50 (M14 melanoma): 1410 nM
TGI (M14 melanoma): 7100 nM
GI50 (MALME-3M melanoma): 2070 nM
TGI (MALME-3M melanoma): 10600 nM
GI50 (MDA-MB-231 breast): 468 nM
TGI (MDA-MB-231 breast): > 100000 nM
GI50 (MOLT-4 leukemia): 296 nM
TGI (MOLT-4 leukemia): 12500 nM
GI50 (SK-MEL-28 melanoma): 2800 nM
TGI (SK-MEL-28 melanoma): > 100000 nM
GI50 (UACC-62 melanoma): 1350 nM
TGI (UACC-62 melanoma): 8220 nM
GI50 (UO-31 renal): 306 nM
TGI (UO-31 renal): > 25800 nM

Clc1ccc2c(NCCNc3ccnc4cc(Cl)ccc34)ccnc2c1
TGI (BT-549 breast): 36800 nM
TGI (HOP-62 NSCLC): 30100 nM
TGI (KM12 colon): 32500 nM
TGI (M14 melanoma): 31200 nM
TGI (MALME-3M melanoma): > 100000 nM
TGI (MDA-MB-231 breast): 32200 nM
TGI (MOLT-4 leukemia): 35300 nM
TGI (SK-MEL-28 melanoma): 32500 nM
TGI (UACC-62 melanoma): 33100 nM
TGI (UO-31 renal): 29100 nM

CCOC(=O)c1c(C)[nH]c(/C=C2\N=C(c3ccc[nH]3)C=C2OC)c1C
GI50 (BT-549 breast): 41 nM
TGI (BT-549 breast): 1480 nM
GI50 (HOP-62 NSCLC): 40.6 nM
TGI (HOP-62 NSCLC): 1170 nM
GI50 (KM12 colon): 15 nM
TGI (KM12 colon): 1320 nM
GI50 (MDA-MB-231 breast): 26.3 nM
TGI (MDA-MB-231 breast): 1320 nM
GI50 (MOLT-4 leukemia): < 12 nM
TGI (MOLT-4 leukemia): 3090 nM
GI50 (UACC-62 melanoma): 30.9 nM
TGI (UACC-62 melanoma): 90.4 nM
GI50 (UO-31 renal): 23.9 nM
TGI (UO-31 renal): 58 nM

COc1cc2cc(C(=O)N3CC(CCl)c4c3cc(N(C)C)c3ccccc43)[nH]c2c(OC)c1OC (stereo unspecified)
TGI (BT-549 breast): 5910 nM
TGI (HOP-62 NSCLC): 52.9 nM
TGI (KM12 colon): 1090 nM
TGI (M14 melanoma): 18.5 nM
TGI (MALME-3M melanoma): 97.6 nM
TGI (MDA-MB-231 breast): > 100000 nM
TGI (MOLT-4 leukemia): 60.8 nM
TGI (UACC-62 melanoma): 16.7 nM

COc1ccc(Cl)cc1NC(=O)c1c(NC(=O)C(F)(F)C(F)(F)F)sc2c1CCCCC2
GI50 (BT-549 breast): 2060 nM
TGI (BT-549 breast): 7230 nM
GI50 (HOP-62 NSCLC): 2490 nM
TGI (HOP-62 NSCLC): 7000 nM
GI50 (M14 melanoma): 2660 nM
TGI (M14 melanoma): > 100000 nM
GI50 (MALME-3M melanoma): 1580 nM
TGI (MALME-3M melanoma): 5630 nM
GI50 (SK-MEL-28 melanoma): 1900 nM
TGI (SK-MEL-28 melanoma): > 100000 nM
GI50 (UACC-62 melanoma): 397 nM
TGI (UACC-62 melanoma): 3860 nM
GI50 (UO-31 renal): 1940 nM
TGI (UO-31 renal): 5750 nM

COc1cccc2c1C(=O)c1c(O)c3c(c(O)c1C2=O)C[C@@](O)(/C(C)=N/NC(=O)c1ccccc1)C[C@@H]3OC1CC(N)C(O)C(C)O1 (stereo partly specified)
TGI (BT-549 breast): 1450 nM
TGI (HOP-62 NSCLC): 715 nM
TGI (KM12 colon): 6640 nM
TGI (M14 melanoma): 1480 nM
TGI (MALME-3M melanoma): 1300 nM
TGI (MDA-MB-231 breast): 3140 nM
TGI (MOLT-4 leukemia): 681 nM
TGI (SK-MEL-28 melanoma): 4020 nM
TGI (UACC-62 melanoma): 1190 nM
TGI (UO-31 renal): 8690 nM

COC(=O)c1cc2c3c(cc(O)c2[nH]1)N(C(=O)C1Cc2cc(OC)c(OC)c(OC)c2N1)CC3CCl (stereo unspecified)
GI50 (BT-549 breast): < 10 nM
TGI (BT-549 breast): < 10 nM
GI50 (KM12 colon): < 10 nM
TGI (KM12 colon): 14.2 nM
GI50 (MOLT-4 leukemia): < 10 nM
TGI (MOLT-4 leukemia): 132 nM
GI50 (SK-MEL-28 melanoma): < 10 nM
TGI (SK-MEL-28 melanoma): < 10 nM

NC(Cc1c[nH]c2ccccc12)C(=O)O (stereo unspecified)
TGI (HOP-62 NSCLC): > 300000 nM
TGI (KM12 colon): > 300000 nM
TGI (MALME-3M melanoma): > 300000 nM
TGI (MOLT-4 leukemia): > 300000 nM
TGI (SK-MEL-28 melanoma): > 300000 nM
TGI (UACC-62 melanoma): > 300000 nM
TGI (UO-31 renal): > 300000 nM

Nc1nc(N)c2nc(-c3ccco3)cnc2n1
TGI (HOP-62 NSCLC): > 100000 nM
TGI (KM12 colon): > 100000 nM
TGI (M14 melanoma): > 100000 nM
TGI (MALME-3M melanoma): > 100000 nM
TGI (MOLT-4 leukemia): > 100000 nM
TGI (SK-MEL-28 melanoma): > 100000 nM
TGI (UACC-62 melanoma): > 100000 nM
TGI (UO-31 renal): > 100000 nM

O=C1C=C(N2CC2)C(=O)C=C1N1CC1
GI50 (BT-549 breast): 20.7 nM
TGI (BT-549 breast): 159 nM and 1340 nM
GI50 (HOP-62 NSCLC): 68.7 nM
TGI (HOP-62 NSCLC): 738 nM
GI50 (KM12 colon): 242 nM
TGI (KM12 colon): 2220 nM
GI50 (M14 melanoma): 28.8 nM
TGI (M14 melanoma): 249 nM
GI50 (MALME-3M melanoma): 49.8 nM
TGI (MALME-3M melanoma): 234 nM and 238 nM
GI50 (MDA-MB-231 breast): 79.2 nM
GI50 (MOLT-4 leukemia): 1.97 nM
TGI (MOLT-4 leukemia): 248 nM
GI50 (SK-MEL-28 melanoma): 187 nM
TGI (SK-MEL-28 melanoma): 680 nM and 654 nM
GI50 (UACC-62 melanoma): 10 nM
TGI (UO-31 renal): 229 nM

CC[C@@]1(O)C(=O)OCc2c1cc1n(c2=O)Cc2c-1nc1ccccc1c2/C=N\NC(=O)C(N)Cc1cnc[nH]1 (stereo partly specified)
TGI (BT-549 breast): > 100000 nM
TGI (HOP-62 NSCLC): 299 nM
TGI (KM12 colon): > 28700 nM
TGI (M14 melanoma): 2630 nM
TGI (MALME-3M melanoma): > 87100 nM
TGI (MDA-MB-231 breast): > 100000 nM
TGI (MOLT-4 leukemia): 243 nM
TGI (SK-MEL-28 melanoma): > 100000 nM
TGI (UACC-62 melanoma): 1220 nM
TGI (UO-31 renal): 2330 nM

COc1ccc(CCCC(=O)O)c(C)c1
TGI (BT-549 breast): > 100000 nM
TGI (HOP-62 NSCLC): 75000 nM
TGI (KM12 colon): > 100000 nM
TGI (M14 melanoma): > 100000 nM
TGI (MALME-3M melanoma): > 100000 nM
TGI (MDA-MB-231 breast): > 100000 nM
TGI (MOLT-4 leukemia): > 100000 nM
TGI (SK-MEL-28 melanoma): > 100000 nM
TGI (UACC-62 melanoma): > 100000 nM
TGI (UO-31 renal): > 100000 nM

Source: PubChem BioAssay (NCI)
